Test results: patent publication US8124635B2, “Antimicrobial composition useful for preserving wood” (Rohm and Haas Company, priority 2006, dated 2012)
Like-named read-outs stand apart in the source and are kept apart here.

Assays:
Format in all cases: cell-based
[1] = test system: Pseudomonas aeruginosa (Ps. aeruginosa—ATCC # 9027); experiment: Microtiter plate MIC / synergy test (Kull synergy index), M9GY medium, 30° C.; details: for MIC: Pseudomonas aeruginosa, read-out: MIC of the component acting alone (end point); for Cb = Component B (OIT), end-point concentration (MIC), alone or in mixture: Component A propiconazole; for Ca = Component A (propiconazole), end-point concentration (MIC), alone or in mixture: Component B OIT
Source text: (§1) One measure of synergism is the industrially accepted method described by Kull, F. C.; Eisman, P. C.; Sylwestrowicz, H. D. and Mayer, R. L., in Applied Microbiology 9:538-541 (1961), using the ratio determined by the formula: Ca/CA+Cb/CB=Synergy Index (“SI”) wherein: • CA=concentration of compound A (first component) in ppm, acting alone, which produced an end point (MIC of Compound A). • Ca=concentration of compound A in ppm, in the mixture, which produced an end point. • CB=concentration of compound B (second component) in ppm, acting alone, which produced an end point (MIC of Compound B). • Cb=concentration of compound B in ppm, in the mixture, which produced an end point.
(§2) When the sum of Ca/CA and Cb/CB is greater than one, antagonism is indicated. […] The lower the SI, the greater the synergy shown by that particular mixture. The minimum inhibitory concentration (MIC) of an antimicrobial compound is the lowest concentration tested under a specific set of conditions that prevents the growth of added microorganisms.
(§3) Synergy tests were conducted using standard microtiter plate assays with media designed for optimal growth of the test microorganism. Minimal salt medium supplemented with 0.2% glucose and 0.1% yeast extract (M9GY medium) was used for bacteria testing; Potato Dextrose Broth (PDB medium) was used for yeast and mold testing. In this method, a wide range of combinations of microbicides was tested by conducting high resolution MIC assays in the presence of various concentrations of biocides. High resolution MICs were determined by adding varying amounts of microbicide to one column of a microtitre plate and doing subsequent ten-fold dilutions using an automated liquid handling system to obtain a series of end points ranging of active ingredient. The synergy of the combinations of the present invention was determined against two bacteria, Pseudomonas aeruginosa (Ps. aeruginosa—ATCC # 9027) and Staphylococcus aureus (S. aureus—ATCC # 6538), a yeast, Candida albicans (C. albicans—ATCC # 10231), and a mold, Aspergillus niger (A. niger—ATCC 16404). The bacteria were used at a concentration of about 1-6×10^6 bacteria per mL and the yeast and mold at 1−5×10^5 fungi per mL. These microorganisms are representative of natural contaminants in many consumer and industrial applications. […] (yeast and mold) or 30° C. (bacteria).

[2] = test system: Staphylococcus aureus (S. aureus—ATCC # 6538); experiment: as above; set-up: Ca = Component A (tebuconazole), end-point concentration (MIC), alone or in mixture / Ca = Component A (propiconazole), end-point concentration (MIC), alone or in mixture: unit: ppm; details: for MIC: Staphylococcus aureus, read-out: MIC of the component acting alone (end point); for Cb = Component B (OIT), end-point concentration (MIC), alone or in mixture: Component A propiconazole
Source text: as §1, §2, §3

[3] = test system: Aspergillus niger (A. niger—ATCC 16404); experiment: Microtiter plate MIC / synergy test (Kull synergy index), PDB medium, 25° C.; details: for MIC: Aspergillus niger, read-out: MIC of the component acting alone (end point)
Source text: as §1, §2, §3

[4] = test system: Trametes vesicolor (T. vesicolor—ATCC # 4262); experiment: Application test: treated paper disc on Malt agar plate, fungal growth observed visually after 4 weeks; details: T. vesicolor ATCC # 42462, contact time 4 weeks
Procedure: (§4) An application test was performed to evaluate synergy of DCOIT/thifluzamide alone and in combination against Gloeophyllum trabeum (G. trabeum—ATCC # 11593) and Trametes vesicolor (T. vesicolor—ATCC # 4262). A paper disc was dipped in the treatment solution, air dried and placed on Malt agar plate streaked with the test organisms. The surface of the disc was also swabbed with the test organisms. The agar plates were incubated at 25° C. for 4 weeks. Fungal growth was then observed visually.

[5] = test system: Gloeophyllum trabeum (G. trabeum—ATCC # 11593); experiment: as above; details: G. trabeum ATCC # 11539, contact time 4 weeks
Procedure: as §4

[6] = test system: Candida albicans (C. albicans—ATCC # 10231); experiment: Microtiter plate MIC / synergy test (Kull synergy index), PDB medium, 25° C.; set-up: Ca = Component A (tebuconazole), end-point concentration (MIC), alone or in mixture / Ca = Component A (propiconazole), end-point concentration (MIC), alone or in mixture: unit: ppm; details: for Cb = Component B (OIT), end-point concentration (MIC), alone or in mixture: Component A propiconazole; for MIC of the component acting alone (end point) / MIC: C. albicans; for MIC: Candida albicans, read-out: MIC of the component acting alone (end point)
Source text: as §1, §2, §3

[7] = Ps. Aeruginosa ATCC # 9027, contact time 24 hour
[8] = Ps. Aeruginosa ATCC # 9027, contact time 48 hour
[9] = Ps. aeruginosa, contact time 24 hour
[10] = ATCC9027, 24 h, Ps. aeruginosa, contact time 24 hour
[11] = ATCC9027, 48 h, Ps. aeruginosa, contact time 48 hour
[12] = S. aureus, contact time 24 hour
[13] = S. aureus, contact time 48 hour
[14] = ATCC6538, 24 h, S. aureus, contact time 24 hour
[15] = ATCC6538, 48 h, S. aureus, contact time 48 hour
[16] = ATCC10231, 24 h, contact time 24 hour
[17] = ATCC16404, 72 h, A. niger, contact time 3 days
[18] = ATCC16404, 168 h, A. niger, contact time 7 days
[19] = S. aureus, contact time 24 hour, Component B CMIT/MIT
[20] = S. aureus, contact time 24 hour, Component B copper 8-hydroxyquinoline
[21] = S. aureus, contact time 48 hour, Component B copper 8-hydroxyquinoline
[22] = C. albicans ATCC # 10231, contact time 24 hour, Component B CMIT/MIT
[23] = C. albicans ATCC # 10231, contact time 24 hour, Component B copper 8-hydroxyquinoline
[24] = C. albicans ATCC # 10231, contact time 48 hour, Component B copper 8-hydroxyquinoline
[25] = A. niger ATCC # 16404, contact time 3 days, Component B copper 8-hydroxyquinoline
[26] = A. niger ATCC # 16404, contact time 7 days, Component B copper 8-hydroxyquinoline

Structure (SMILES): Cn1sccc1=O [MI, 2-methyl-4-isothiazolin-3-one]
- MIC ([1]; ATCC9027, 24 h): 20 µg/mL
- MIC ([1]; ATCC9027, 48 h): 20 µg/mL
- MIC ([2]; ATCC6538, 24 h): 30 µg/mL
- MIC ([2]; ATCC6538, 48 h): 40 µg/mL
- MIC ([3]; ATCC16404, 72 h): 450 µg/mL
- MIC ([3]; ATCC16404, 168 h): 450 µg/mL

Structure (SMILES): Cc1nc(C(F)(F)F)c(C(=O)Nc2c(Br)cc(OC(F)(F)F)cc2Br)s1 [thifluzamide]
- Cb = Component B (thifluzamide), end-point concentration, alone or in mixture ([4]; Component A DCOIT): 320
- Cb = Component B (thifluzamide), end-point concentration, alone or in mixture ([5]; Component A DCOIT): >960

Structure (SMILES): CCCCCCCCn1sccc1=O [OIT, 2-n-octyl-4-isothiazolin-3-one]
- Cb = Component B (OIT), end-point concentration (MIC), alone or in mixture [1, 7]: 390
- Cb = Component B (OIT), end-point concentration (MIC), alone or in mixture [1, 8]: 525
- MIC of the component acting alone (end point) [1, 9]: 390 ppm
- MIC [1, 10]: 390 µg/mL
- MIC [1, 11]: 415 µg/mL
- Cb = Component B (OIT), end-point concentration (MIC), alone or in mixture [2, 12]: 63
- Cb = Component B (OIT), end-point concentration (MIC), alone or in mixture [2, 13]: 78
- MIC [2, 14]: 63 µg/mL
- MIC [2, 15]: 78 µg/mL
- Cb = Component B (OIT), end-point concentration (MIC), alone or in mixture ([6]; C. albicans ATCC # 10231, contact time 24 hour): 1.3
- Cb = Component B (OIT), end-point concentration (MIC), alone or in mixture ([6]; C. albicans ATCC # 10231, contact time 48 hour): 1.3
- MIC of the component acting alone (end point) ([6]; contact time 24 hour): 0.9 ppm
- MIC [6, 16]: 0.6 µg/mL
- MIC ([6]; ATCC10231, 48 h, contact time 48 hour): 0.9 µg/mL
- MIC [3, 17]: 3.3 µg/mL
- MIC [3, 18]: 3.3 µg/mL

Structure (SMILES): CCCCNC(=O)OCC#CI [IPBC, 3-iodo-2-propynyl-butylcarbamate]
- MIC of the component acting alone (end point) [1, 9]: 263 ppm
- MIC of the component acting alone (end point) ([1]; Ps. aeruginosa, contact time 48 hour): 263 ppm
- MIC of the component acting alone (end point) [2, 12]: 34 ppm
- MIC of the component acting alone (end point) [2, 13]: 42 ppm
- MIC of the component acting alone (end point) ([6]; contact time 24 hour): 4.2 ppm
- MIC of the component acting alone (end point) ([6]; contact time 48 hour): 4.2 ppm
- MIC of the component acting alone (end point) ([3]; A. niger, contact time 3 days): 0.4 ppm

Structure (SMILES): CC(C)(C)C(O)(CCc1ccc(Cl)cc1)Cn1cncn1 (stereo not shown) [tebuconazole]
- Ca = Component A (tebuconazole), end-point concentration (MIC), alone or in mixture ([1]; Ps. Aeruginosa ATCC # 9027, contact time 24 hour, Component B copper 8-hydroxyquinoline): 900
- MIC [1, 10]: 900 µg/mL
- MIC [1, 11]: 900 µg/mL
- Ca = Component A (tebuconazole), end-point concentration (MIC), alone or in mixture [2, 19]: 50
- Ca = Component A (tebuconazole), end-point concentration (MIC), alone or in mixture [2, 20]: 50
- Ca = Component A (tebuconazole), end-point concentration (MIC), alone or in mixture ([2]; S. aureus, contact time 48 hour, Component B CMIT/MIT): 50
- Ca = Component A (tebuconazole), end-point concentration (MIC), alone or in mixture [2, 21]: 50
- MIC [2, 14]: 50 µg/mL
- MIC [2, 15]: 50 µg/mL
- Ca = Component A (tebuconazole), end-point concentration (MIC), alone or in mixture [6, 22]: 50
- Ca = Component A (tebuconazole), end-point concentration (MIC), alone or in mixture [6, 23]: 60
- Ca = Component A (tebuconazole), end-point concentration (MIC), alone or in mixture ([6]; C. albicans ATCC # 10231, contact time 48 hour, Component B CMIT/MIT): 50
- Ca = Component A (tebuconazole), end-point concentration (MIC), alone or in mixture [6, 24]: 60
- MIC [6, 16]: 50 µg/mL
- Ca = Component A (tebuconazole), end-point concentration (MIC), alone or in mixture [3, 25]: 8
- Ca = Component A (tebuconazole), end-point concentration (MIC), alone or in mixture [3, 26]: 8
- MIC [3, 17]: 8 µg/mL
- MIC [3, 18]: 8 µg/mL

Structure (SMILES): CCCCCCCCn1sc(Cl)c(Cl)c1=O [DCOIT, 4,5-dichloro-2-n-octyl-4-isothiazolin-3-one]
- MIC [1, 10]: 3.2 µg/mL
- MIC [1, 11]: 5.3 µg/mL
- Ca = Component A (DCOIT), end-point concentration, alone or in mixture ([4]; Component B thifluzamide): 320
- Ca = Component A (DCOIT), end-point concentration, alone or in mixture ([5]; Component B thifluzamide): 320
- MIC [2, 14]: 0.1 µg/mL
- MIC [2, 15]: 0.4 µg/mL

Structure (SMILES): CCCC1COC(Cn2cncn2)(c2ccc(Cl)cc2Cl)O1 (stereo not shown) [propiconazole]
- Ca = Component A (propiconazole), end-point concentration (MIC), alone or in mixture [1, 7]: 800
- Ca = Component A (propiconazole), end-point concentration (MIC), alone or in mixture [1, 8]: 800
- Ca = Component A (propiconazole), end-point concentration (MIC), alone or in mixture [2, 19]: 100
- Ca = Component A (propiconazole), end-point concentration (MIC), alone or in mixture ([2]; S. aureus, contact time 24 hour, Component B OIT): 100
- Ca = Component A (propiconazole), end-point concentration (MIC), alone or in mixture [2, 20]: 100
- Ca = Component A (propiconazole), end-point concentration (MIC), alone or in mixture ([2]; S. aureus, contact time 48 hour, Component B OIT): 100
- Ca = Component A (propiconazole), end-point concentration (MIC), alone or in mixture [2, 21]: 100
- MIC [2, 14]: 100 µg/mL
- Ca = Component A (propiconazole), end-point concentration (MIC), alone or in mixture [6, 22]: 50
- Ca = Component A (propiconazole), end-point concentration (MIC), alone or in mixture ([6]; C. albicans ATCC # 10231, contact time 24 hour, Component B OIT): 50
- Ca = Component A (propiconazole), end-point concentration (MIC), alone or in mixture [6, 23]: 50
- Ca = Component A (propiconazole), end-point concentration (MIC), alone or in mixture ([6]; C. albicans ATCC # 10231, contact time 48 hour, Component B OIT): 50
- Ca = Component A (propiconazole), end-point concentration (MIC), alone or in mixture [6, 24]: 50
- Ca = Component A (propiconazole), end-point concentration (MIC), alone or in mixture ([3]; A. niger ATCC # 16404, contact time 3 days, Component B CMIT/MIT): 20
- Ca = Component A (propiconazole), end-point concentration (MIC), alone or in mixture [3, 25]: 20
- Ca = Component A (propiconazole), end-point concentration (MIC), alone or in mixture [3, 26]: 25
- MIC [3, 17]: 20 µg/mL
- MIC [3, 18]: 20 µg/mL
